From US20230416227A1, “PLASMA KALLIKREIN INHIBITORS” (Merck Sharp & Dohme LLC, priority 2020, published 2023)

target: T1, Human plasma kallikrein (Homo sapiens, UniProt P03952); experiment: Plasma Kallikrein Assay; type: biochemical; conditions: purified Human plasma kallikrein 0.5 nM, substrate Acetyl-K-P-R-AFC, pH 7.4
T1 construct: yields a heavy chain (371 amino acids) and a light chain (248 amino acids); purchased Enzyme Research Laboratories
T1 sequence (P03952 391-638 limits assumed): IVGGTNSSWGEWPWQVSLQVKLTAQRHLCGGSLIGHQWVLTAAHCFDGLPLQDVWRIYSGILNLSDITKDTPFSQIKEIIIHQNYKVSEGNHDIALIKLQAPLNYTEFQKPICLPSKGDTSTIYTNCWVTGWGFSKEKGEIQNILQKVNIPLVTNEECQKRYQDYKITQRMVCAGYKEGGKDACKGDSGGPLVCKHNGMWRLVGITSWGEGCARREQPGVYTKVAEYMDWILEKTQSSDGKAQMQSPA
T1 sequence (P03952 20-390 partner limits assumed): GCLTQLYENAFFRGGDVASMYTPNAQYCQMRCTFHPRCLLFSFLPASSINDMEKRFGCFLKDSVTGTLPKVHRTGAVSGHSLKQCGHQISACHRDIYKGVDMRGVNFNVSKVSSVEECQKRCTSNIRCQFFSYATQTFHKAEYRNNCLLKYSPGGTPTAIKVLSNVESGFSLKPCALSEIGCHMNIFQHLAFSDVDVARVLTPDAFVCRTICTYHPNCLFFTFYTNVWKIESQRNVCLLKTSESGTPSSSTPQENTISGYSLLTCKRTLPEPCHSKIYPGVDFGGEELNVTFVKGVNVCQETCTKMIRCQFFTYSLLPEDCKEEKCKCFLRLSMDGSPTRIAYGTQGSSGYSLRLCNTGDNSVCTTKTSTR

Structure (SMILES)	IC50 [nM]
CC(c1cnc(N2CC[C@H]2[C@@H](C)N2CC(C)(O)C2)nc1)n1cc(NC(=O)c2cncc(-c3c(C(F)F)ccc(Cl)c3F)n2)cn1 (stereo partly drawn) [Example 190, 6-(3-Chloro-6-(difluoromethyl)-2-fluorophenyl)-N-(1-(1-(2-((S)-2-((R)-1-(3-hydroxy-3-methylazetidin-1-yl)ethyl)azetidin-1-yl)pyrimidin-5-yl)ethyl)-1H-pyrazol-4-yl)pyrazine-2-carboxamide]	3.5
CC(c1cnc(N2CC[C@H]2CN2CCC[C@@H](O)C2)nc1)n1cc(NC(=O)c2cncc(-c3c(C(F)F)ccc(Cl)c3F)n2)cn1 (stereo partly drawn) [Example 177, 6-(3-Chloro-6-(difluoromethyl)-2-fluorophenyl)-N-(1-(1-(2-((S)-2-(((R)-3-hydroxypiperidin-1-yl)methyl)azetidin-1-yl)pyrimidin-5-yl)ethyl)-1H-pyrazol-4-yl)pyrazine-2-carboxamide]	1.2
CC(c1cnc(N2CCC[C@@H]2C(N)=O)nc1)n1cc(NC(=O)c2cncc(-c3c(C(F)F)ccc(Cl)c3F)n2)cn1 (mixture of isomers) [Example 104, N-(1-((R and S)-1-(2-((R)-2-Carbamoylpyrrolidin-1-yl)pyrimidin-5-yl)ethyl)-1H-pyrazol-4-yl)-6-(3-chloro-6-(difluoromethyl)-2-fluorophenyl)pyrazine-2-carboxamide]	32.9
O=C(Nc1cnn(Cc2ccc(N3CCNC4(CC4)C3)nc2)c1)c1cncc(-c2c(C(F)F)ccc(Cl)c2F)n1 [Example 128, N-(1-((6-(4,7-Diazaspiro[2.5]octan-7-yl)pyridin-3-yl)methyl)-1H-pyrazol-4-yl)-6-(3-chloro-6-(difluoromethyl)-2-fluorophenyl)pyrazine-2-carboxamide]	32.2
O=C(Nc1cnn(Cc2ccc(N3CC4C(C3)C4(F)F)nc2)c1)c1cncc(-c2c(C(F)F)ccc(Cl)c2F)n1 (stereo not drawn) [Example 127, 6-(3-Chloro-6-(difluoromethyl)-2-fluorophenyl)-N-(1-((6-(6,6-difluoro-3-azabicyclo[3.1.0]hexan-3-yl)pyridin-3-yl)methyl)-1H-pyrazol-4-yl)pyrazine-2-carboxamide]	31.3
O=C(Nc1cnn(Cc2cnc(N3CC4C(C3)C4(F)F)nc2)c1)c1cncc(-c2c(C(F)F)ccc(Cl)c2F)n1 (stereo not drawn) [Example 90, 6-(3-Chloro-6-(difluoromethyl)-2-fluorophenyl)-N-(1-((2-(6,6-difluoro-3-azabicyclo[3.1.0]hexan-3-yl)pyrimidin-5-yl)methyl)-1H-pyrazol-4-yl)pyrazine-2-carboxamide]	17.8
CC(c1cnc(N2CC[C@H]2CN(C)[C@H]2CCC[C@@H]2O)nc1)n1cc(NC(=O)c2cncc(-c3c(C(F)F)ccc(Cl)c3F)n2)cn1 (stereo partly drawn) [Example 183, 6-(3-Chloro-6-(difluoromethyl)-2-fluorophenyl)-N-(1-(1-(2-((S)-2-((((1S,2S)-2-hydroxycyclopentyl)(methyl)amino)methyl)azetidin-1-yl)pyrimidin-5-yl)ethyl)-1H-pyrazol-4-yl)pyrazine-2-carboxamide]	4.2
C[C@@H](c1cnc(N2C[C@@H]3C[C@@H]3[C@@H]2CO)nc1)n1cc(NC(=O)c2cncc(-c3c(C(F)F)ccc(Cl)c3F)n2)cn1 (single isomer, unassigned) [Example 86, 6-(3-Chloro-6-(difluoromethyl)-2-fluorophenyl)-N-(1-((S or R)-1-(2-((1S,2R,5R or 1R,2S,5S)-2-(hydroxymethyl)-3-azabicyclo[3.1.0]hexan-3-yl)pyrimidin-5-yl)ethyl)-1H-pyrazol-4-yl)pyrazine-2-carboxamide]	13.3
CN(C)CCN(C)c1ncc(Cn2cc(NC(=O)c3cncc(-c4c(C(F)F)ccc(Cl)c4F)n3)cn2)cn1 [Example 98, 6-(3-Chloro-6-(difluoromethyl)-2-fluorophenyl)-N-(1-((2-((2-(dimethylamino)ethyl)(methyl)amino)pyrimidin-5-yl)methyl)-1H-pyrazol-4-yl)pyrazine-2-carboxamide]	28.2
CC(c1cnc(N2CC3CC3C2C#N)nc1)n1cc(NC(=O)c2cncc(-c3c(C(F)F)ccc(Cl)c3F)n2)cn1 (single isomer, unassigned) [Example 197]	412
CC(c1cnc(N2C[C@H]3C[C@H]3C2C(=O)N(C)C)nc1)n1cc(NC(=O)c2cncc(-c3c(C(F)F)ccc(Cl)c3F)n2)cn1 (single isomer, unassigned) [Example 203, (1R,2S,5S or 1S,2R,5R)-3-(5-((S or R)-1-(4-(6-(3-Chloro-6-(difluoromethyl)-2-fluorophenyl)pyrazine-2-carboxamido)-1H-pyrazol-1-yl)ethyl)pyrimidin-2-yl)-N,N-dimethyl-3-azabicyclo[3.1.0]hexane-2-carboxamide]	77.8
O=C(Nc1cnn(Cc2cnc(N3CCC4CC43)nc2)c1)c1cncc(-c2c(C(F)F)ccc(Cl)c2F)n1 (stereo not drawn) [Example 108, N-(1-((2-(2-Azabicyclo[3.1.0]hexan-2-yl)pyrimidin-5-yl)methyl)-1H-pyrazol-4-yl)-6-(3-chloro-6-(difluoromethyl)-2-fluorophenyl)pyrazine-2-carboxamide]	45
C[C@H](c1cnc(N2C[C@H]3C[C@H]3[C@H]2C#N)nc1)n1cc(NC(=O)c2cncc(-c3c(C(F)F)ccc(Cl)c3F)n2)cn1 (single isomer, unassigned) [Example 196]	4.7
CC(c1cnc(N2CC[C@H]2CN2CC[C@@H](O)C[C@@H]2C)nc1)n1cc(NC(=O)c2cncc(-c3c(C(F)F)ccc(Cl)c3F)n2)cn1 (stereo partly drawn) [Example 178, 6-(3-Chloro-6-(difluoromethyl)-2-fluorophenyl)-N-(1-(1-(2-((S)-2-(((2S,4R)-4-hydroxy-2-methylpiperidin-1-yl)methyl)azetidin-1-yl)pyrimidin-5-yl)ethyl)-1H-pyrazol-4-yl)pyrazine-2-carboxamide]	3.3
CN1C2CCC1CN(c1ccc(Cn3cc(NC(=O)c4cncc(-c5c(C(F)F)ccc(Cl)c5F)n4)cn3)cn1)C2 [Example 205, 6-(3-Chloro-6-(difluoromethyl)-2-fluorophenyl)-N-(1-((6-(8-methyl-3,8-diazabicyclo[3.2.1]octan-3-yl)pyridin-3-yl)methyl)-1H-pyrazol-4-yl)pyrazine-2-carboxamide]	14.1
CC(c1cnc(N2CC[C@H]2[C@@H](C)NCC2(O)CC2)nc1)n1cc(NC(=O)c2cncc(-c3c(C(F)F)ccc(Cl)c3F)n2)cn1 (stereo partly drawn) [Example 192, 6-(3-Chloro-6-(difluoromethyl)-2-fluorophenyl)-N-(1-(1-(2-((S)-2-((R)-1-(((1-hydroxycyclopropyl)methyl)amino)ethyl)azetidin-1-yl)pyrimidin-5-yl)ethyl)-1H-pyrazol-4-yl)pyrazine-2-carboxamide]	4.1
O=C(Nc1cnn(Cc2cnc(N3CCCC3CC3(O)CC3)nc2)c1)c1cncc(-c2c(C(F)F)ccc(Cl)c2F)n1 (single isomer, unassigned) [Example 112, (S or R)-6-(3-Chloro-6-(difluoromethyl)-2-fluorophenyl)-N-(1-((2-(2-((1-hydroxycyclopropyl)methyl)pyrrolidin-1-yl)pyrimidin-5-yl)methyl)-1H-pyrazol-4-yl)pyrazine-2-carboxamide]	49.2

Second part, the compound after the results:

IC50 [nM]	Structure (SMILES)
3.6	NC(=O)[C@@H]1CCCN1c1ccc(Cn2cc(NC(=O)c3cncc(-c4c(C(F)F)ccc(Cl)c4F)n3)cn2)cn1 [Example 116, (S)-N-(1-((6-(2-Carbamoylpyrrolidin-1-yl)pyridin-3-yl)methyl)-1H-pyrazol-4-yl)-6-(3-chloro-6-(difluoromethyl)-2-fluorophenyl)pyrazine-2-carboxamide]
14.9	CN(C)CCN(CCO)c1ncc(Cn2cc(NC(=O)c3cncc(-c4c(C(F)F)ccc(Cl)c4F)n3)cn2)cn1 [Example 88, 6-(3-Chloro-6-(difluoromethyl)-2-fluorophenyl)-N-(1-((2-((2-(dimethylamino)ethyl)(2-hydroxyethyl)amino)pyrimidin-5-yl)methyl)-1H-pyrazol-4-yl)pyrazine-2-carboxamide]
42.9	CC(N)C1CCCN1c1ncc(Cn2cc(NC(=O)c3cncc(-c4c(C(F)F)ccc(Cl)c4F)n3)cn2)cn1 (single isomer, unassigned) [Example 160, N-(1-((2-(2-(1-Aminoethyl)pyrrolidin-1-yl)pyrimidin-5-yl)methyl)-1H-pyrazol-4-yl)-6-(3-chloro-6-(difluoromethyl)-2-fluorophenyl)pyrazine-2-carboxamide]
17.9	CCC(=O)C1C2CC2CN1c1ncc(Cn2cc(NC(=O)c3cncc(-c4c(C(F)F)ccc(Cl)c4F)n3)cn2)cn1 (stereo not drawn) [Example 91, 6-(3-Chloro-6-(difluoromethyl)-2-fluorophenyl)-N-(1-((2-(2-propionyl-3-azabicyclo[3.1.0]hexan-3-yl)pyrimidin-5-yl)methyl)-1H-pyrazol-4-yl)pyrazine-2-carboxamide]
20.6	CC1CCN1c1ncc(C(C)n2cc(NC(=O)c3cncc(-c4c(C(F)F)ccc(Cl)c4F)n3)cn2)cn1 (racemic) [Example 100, 6-(3-Chloro-6-(difluoromethyl)-2-fluorophenyl)-N-(1-((R and S)-1-(2-((R and S)-2-methylazetidin-1-yl)pyrimidin-5-yl)ethyl)-1H-pyrazol-4-yl)pyrazine-2-carboxamide]
30.7	N#Cc1ccc(Cl)c(F)c1-c1cncc(C(=O)Nc2cnn(Cc3cnc(N4CCC4)nc3)c2)n1 [Example 53, N-(1-((2-(Azetidin-1-yl)pyrimidin-5-yl)methyl)-1H-pyrazol-4-yl)-6-(3-chloro-6-cyano-2-fluorophenyl)pyrazine-2-carboxamide]
46.2	CC(C)(O)CC1CCCN1c1ncc(Cn2cc(NC(=O)c3cncc(-c4c(C(F)F)ccc(Cl)c4F)n3)cn2)cn1 (single isomer, unassigned) [Example 110, (S or R)-6-(3-Chloro-6-(difluoromethyl)-2-fluorophenyl)-N-(1-((2-(2-(2-hydroxy-2-methylpropyl)pyrrolidin-1-yl)pyrimidin-5-yl)methyl)-1H-pyrazol-4-yl)pyrazine-2-carboxamide]
